Test results from the NIST ThermoML archive (doi:10.1016/j.jct.2013.05.037).

What was measured:
[1] = mn = molality of the nth substance listed, in mol/kg; settings: for surface tension liquid-gas: Pendant drop shape; for viscosity / speed of sound / mass density: 101 kPa, Liquid; for viscosity: Capillary tube (Ostwald / Ubbelohde) method; for speed of sound: Sing-around technique in a fixed-path interferometer; for mass density: Vibrating tube method
[2] = for surface tension liquid-gas: Pendant drop shape; for viscosity / mass density: 101.33 kPa, Liquid; for viscosity: Capillary tube (Ostwald / Ubbelohde) method; for mass density: Vibrating tube method

NCC(=O)O [2-aminoacetic acid] + O
surface tension liquid-gas [mN/m], [1]
Settings | m1 = 0.0502 | m1 = 0.0755 | m1 = 0.1007 | m1 = 0.1261 | m1 = 0.1514
293.15 K | 72.83 | 72.89 | 72.77 | 72.66 | 72.54
298.15 K | 72.09 | 72.14 | 72.03 | 71.88 | 71.79
303.15 K | 71.29 | 71.35 | 71.24 | 70.95 | 70.84
308.15 K | 70.49 | 70.55 | 70.6 | 70.66 | 70.71

C[C@H](N)C(=O)O [(S)-2-aminopropanoic acid] + O
surface tension liquid-gas [mN/m], [1]
Settings | m1 = 0.0503 | m1 = 0.0755 | m1 = 0.1009 | m1 = 0.1263 | m1 = 0.1518
293.15 K | 72.86 | 72.91 | 72.78 | 72.66 | 72.53
298.15 K | 72.07 | 72.12 | 72 | 71.88 | 71.76
303.15 K | 71.28 | 71.33 | 71.38 | 71.43 | 71.48
308.15 K | 70.46 | 70.53 | 70.58 | 70.63 | 70.68

N[C@@H](Cc1ccccc1)C(=O)O [L-phenylalanine] + O
surface tension liquid-gas [mN/m], [1]
Settings | m1 = 0.0505 | m1 = 0.0759 | m1 = 0.1015 | m1 = 0.1273 | m1 = 0.1532
293.15 K | 72.38 | 71.94 | 70.99 | 70.56 | 70.14
298.15 K | 71.09 | 70.66 | 69.74 | 68.37 | 66.91
303.15 K | 70.83 | 69.91 | 68.53 | 66.61 | 64.53
308.15 K | 70.03 | 68.98 | 66.59 | 65.22 | 63.35

CCCCCCCC[N+](C)(CCCCCCCC)CCCCCCCC.[Cl-] [N-methyl-N,N-dioctyl-1-octanaminium chloride] + O
[1], m1 = 0.002
Settings | mass density [kg/m3] | speed of sound [m/s] | surface tension liquid-gas [mN/m] | viscosity [mPa·s]
293.15 K | 998.54 | 1483.4 | 29.98 | 1.043
298.15 K | 997.375 | 1497.3 | 29.17 | 0.9291
303.15 K | 995.978 | 1510.7 | 28.93 | 0.8195
308.15 K | 994.348 | 1520.2 | 28.19 | 0.7465

CCCCCCCCCCCCCCCC[n+]1ccccc1.[Cl-] [cetylpyridinium chloride] + O
[1], m1 = 0.002
Settings | mass density [kg/m3] | speed of sound [m/s] | surface tension liquid-gas [mN/m] | viscosity [mPa·s]
293.15 K | 998.567 | 1483.1 | 41.75 | 1.004
298.15 K | 997.407 | 1497.2 | 41.6 | 0.9033
303.15 K | 996.012 | 1509.4 | 41.57 | 0.8137
308.15 K | 994.387 | 1519.8 | 41.35 | 0.7557

O [water]
[2]
Settings | mass density [kg/m3] | surface tension liquid-gas [mN/m] | viscosity [mPa·s]
293.15 K | 998.587 | 72.75 | 1.002
298.15 K | 997.425 | 71.97 | 0.8937
303.15 K | 996.04 | 71.18 | 0.8001
308.15 K | 994.425 | 70.38 | 0.7225

O [water] + C[C@H](N)C(=O)O
[1], m2 = 0
Settings | surface tension liquid-gas [mN/m]
293.15 K | 72.75
298.15 K | 71.97
303.15 K | 71.18
308.15 K | 70.38

O [water] + NCC(=O)O
[1], m2 = 0
Settings | surface tension liquid-gas [mN/m]
293.15 K | 72.75
298.15 K | 71.97
303.15 K | 71.18
308.15 K | 70.38

O [water] + N[C@@H](Cc1ccccc1)C(=O)O
[1], m2 = 0
Settings | surface tension liquid-gas [mN/m]
293.15 K | 72.75
298.15 K | 71.97
303.15 K | 71.18
308.15 K | 70.38
